Measurements as given in US20250354297A1, “SHIELDED SMALL NUCLEOTIDES FOR INTRACELLULAR BARCODING” (BOARD OF REGENTS, THE UNIVERSITY OF TEXAS SYSTEM, priority 2021, published 2025).

Experiments:
CD19.28z CAR T cells [1] = experiment: 8-plex CAR T SSN-seq ex vivo (infusion product); assay type: cell-based, human; conditions: 5 μM TWS119, 0.15 μM JQ1; CCR7, SELL, TCF7
Experimental: Pooled/sorted cells were processed for single-cell RNA sequencing at using Chromium Next GEM Single Cell 3′ Reagent Kit V3.1 (with feature barcoding technology for CRISPR screening), following the manufacturer's protocol. For enrichSSN amplification, a primer specific to the 5′ shield sequence was used (see FIG. 16A) and PCR was performed following 10× Genomics protocol for “Feature PCR” with 15 or 19 amplification cycles. Pooled libraries (the 3′ gene expression library and the sgRNA/SSN library, at a 4:1 ratio) were sequenced with a NovaSeq6000 SP-100 flow cell (Illumina) for each scRNA-seq experiment.
scRNA-seq data were preprocessed. In brief, gene expressing reads were aligned to the GRCh38 genome (human) and/or mm 10 genome (mouse) using the 10× Genomics Cell Ranger (version 6.0.2, 6.1.1 and 6.1.2), with the cellranger count pipeline. sgRNA/SSN counts were retrieved by cellranger count using the pattern containing unique group barcodes and constant sequences derived from the sgRNA/SSN scaffold. […] To ensure a fair quantitative comparison, sgRNA/SSN UMI counts shown across different experiments were restricted to the raw output of cellranger count. Filtered feature-barcode matrices were further analyzed in R using Seurat (version 4.0.3). In general, genes detected in less than three cells and cells expressing <200 or >7,000 RNA features (genes) were filtered out. […]

CD19.28z CAR T cells [2] = experiment: Flow cytometry of T cell memory markers CCR7 and CD45RA in 8-plex CAR T cells; assay type: cell-based, human; conditions: 5 μM TWS119, 0.15 μM JQ1, day 8
Experimental: 8-plex CAR T SSN-seg ex vivo (infusion product). Twenty-four hours after activation, human primary T cells were transduced with lentiviral vectors (see FIG. 16B). Transduced T cells were cultured in the presence of 5 μM TWS119, 0.15 μM JQ1, the combination of TWS119 and JQ1 (Combo), or DMSO (Mock) controls. CAR T cells in four treatment groups were expanded in culture media supplemented with IL2 or IL7 plus IL15 (denoted as IL7×15) cytokines. Culture media containing small molecule inhibitors and cytokines were replenished every other day. CAR T cells were maintained at a concentration of 0.5 to 1×10^6 cells per ml. On day 8, expression of T cell memory makers (CCR7 and CD45RA) was evaluated in all treatment groups using flow cytometry. Then, CAR T cells in all groups were counted and pooled at equal ratios. To enrich CAR^+ population a cell surface reporter NGFR^+ was utilized to FACS purify CAR T cells before scRNA-seq analysis. Aliquots of the pooled samples were also injected into tumor mice. Remaining CAR T cells were cryopreserved in CryoStor CS10 media (Stem Cell Technologies).

Compound | enriched genes in transcriptome analysis (CD19.28z CAR T cells [1]) | naïve and central memory markers (CCR7, CD45RA) (CD19.28z CAR T cells [2])
Cc1sc2c(c1C)C(c1ccc(Cl)cc1)=N[C@@H](CC(=O)OC(C)(C)C)c1nnc(C)n1-2 [JQ1] | enriched in memory-related genes | enrichment of naïve and central memory markers
Nc1cccc(-c2cc3c(Oc4cccc(O)c4)ncnc3[nH]2)c1 [TWS119] | enriched in memory-related genes | enrichment of naïve and central memory markers
